Entries after “also recorded” stand apart in the source; their conditions may differ.
Legend:
[1] = system: rat aortic smooth muscle cells; assay: serum-stimulated proliferation, 3H-thymidine incorporation into DNA; format: cell-based; conditions: 10% fetal calf serum stimulated; for 3H-thymidine incorporated (IC50), N symbol / IC50: 24 h; for IC50: Rattus norvegicus, read-out: 3H-thymidine incorporated (IC50)
Procedure: (§1) Inhibition of serum-stimulated proliferation of rat aortic smooth muscle cells is determined as follows: The antiproliferative effect of potential drug is determined by measuring the incorporation of ^3 H-thymidine into cellular DNA. Exposure of quiescent vascular smooth muscle cell to serum, which contains many growth factors, results in a large increase in cellular proliferation as measured by ^3 H-thymidine incorported into DNA. The inhibitory effect of potential drug on serum-stimulated proliferation is tested by adding a drug before the addition of serum and determining if the serum-stimulated proliferation is reduced. […] In that event, antagonizing of the antiproliferative effect of idazoxan is determined by adding antagonist before the addition of idazoxan to serum-stimulated vascular smooth muscle cells.
In this experiment, the proliferation of vascular smooth muscle cells was determined by measuring DNA replication. The incorporation of ^3 H-thymidine into DNA was used to measure the replication of DNA as described in Erlinge, D., et al, Am. J. Physiol. 265, H1089-H1097 (1993) which is incorporated herein by reference.
(§2) Rat aortic smooth muscle cells prepared as described in In Vitro Example 1 were plated into 24-well plates at a density of about 30,000 cells/well in 10% fetal calf serum (FCS). After 48 hours, the cells were starved in 0.5% FCS for another 48 hours to decrease proliferation and induce quiescence. The medium was replaced by serum-free medium 24 hours prior to addition of drug (drugs are described below) and 10% fetal calf serum or only 10% fetal calf serum in the case of the control. The cells were then incubated for 24 hours and ^3 H-thymidine (1 μCi/well) was added at hour 20. At the end of the 24 hour period, the medium was aspirated and the cells were washed three times with phosphate-buffered saline and twice with ice-cold trichloroacetic acid. Fixed cells were then solubilized in 0.2M NaOH and sonicated. A 100 μl aliquot was used for scintillation counting.

I2 imidazoline receptors [2] = assay: inhibition of 3H-idazoxan (5 nM) binding to rat aortic smooth muscle cell membranes; conditions: for Ki: Table 2, rat aortic smooth muscle cell membranes, read-out: Ki; for Ki / inhibition of 3H-idazoxan binding, in words: 3H-idazoxan 5 nM
Procedure: (§3) Binding to I2 imidazoline receptors is determined by the following assay. Membranes are prepared from cultured cells for ligand binding as described in Regunathan, S., et al, Biochem. Pharmacol. 45, 1667-1675 (1993) and Regunathan, S., et al, J. Neurosci. Res. 34, 681-688 (1993) and the disclosure in these on this is incorporated herein by reference. In particular, harvested rat aortic smooth muscle cells are homogenized in Hepes-sucrose buffer (pH 7.4) with a Teflon-glass homogenizer and centrifuged at 1000 × g for 10 minutes. The pellets are suspended in ice-cold Tris-HCl buffer (pH 7.7) with 5mM ethylene diamine tetracetic acid and homogenized using a Polytron (Brinkman Instruments) for 10 seconds. The homogenate is centrifuged at 40,000 × g for 30 minutes to produce a membrane pellet. The membrane pellet is washed three times by resuspending in buffer and re-centrifuging. The washed pellet is suspended in fresh Tris-HCl buffer (pH 7.4) to provide approximately 100 μg protein per assay tube. Binding assays are performed in Tris-HCl buffer (pH 7.7) using 5 nM of […]. Non-specific binding is defined by 100 μM of unlabelled idazoxan which will inhibit the specific binding of ^3 H-idazoxan. Thus the binding remaining in the presence 100 μM of idazoxan is due to non-specific binding and this will be substracted from total binding to calculate the specific binding. Following incubation at 25° C. for 30 minutes, reaction is terminated by rapid vacuum filtration over Whatman GF/B filters and washed with 10 ml of ice-cold buffer. Filters are suspended in scintillation fluid and radioactivity counted in a liquid scintillation counter. Membrane protein is assayed by Coomassie Blue method (Pierce) using bovine serum albumin as standard.
Determination of inhibition constant (Ki) for each drug is determined as follows: The binding of ^3 H-idazoxan to membranes of vascular smooth muscle cells is determined in the presence of 0.1 nM to 100 μM concentrations of potential drug. The percent inhibition of specific binding of ^3 H-idazoxan by each concentration is calculated and plotted against concentration. The data is analyzed by non-linear curve fitting program, LIGAND and the IC50 value for each potential drug is calculated. The affinity for each drug (Ki) for I2 imidazoline receptors is calculated using the formula Ki =IC50 /1+L/Kd where L is the concentration of ^3 H-idazoxan used for binding and Kd is the dissociation constant for ^3 H-idazoxan for I2 imidazoline receptors. The dissociation constant (Kd) is determined by Scatchard analysis of the saturation binding of ^3 H-idazoxan using the formula [formula] where B and F are the amount of bound and free ligand, respectively, and Bmax is the number of binding sites.
(§4) Primary cultures of rat-aortic smooth muscle cells were prepared by a modification (described in Erlinge, Do, et al, Am. J. Physiol. 265, H1089-1097, 1993) of the method of Meyer-Lehnert and Schrier (Meyer-Lehnert, H., et al, Hypertension 13,350-361, 1989), the disclosure of these cited articles being incorporated herein by reference. Briefly, rats were killed by anesthetic overdose and the aorta were removed and incubated with collagenase (2 mg/ml) in Dulbecco's modified Eagle's minimum essential medium (DMEM). The vessel was stripped of adventitia, cut longitudinally and the intima scraped away. After further collagenase treatment, the remaining tissue was passed 20 times through 18 and 16 gauge needles. The resulting cell suspension was centrifuged at 500 × g for 5 minutes and resuspended in DMEM containing penicillin (100 units/ml), streptomycin (100 μg/ml), 2 mM L-glutamine and 10% fetal calf serum. The suspended cells were plated in T-75 flasks, cultured until confluent, and subcultured in 100 mm plates. The confluent cells were harvested and membranes were prepared. Cell viability was determined by trypan blue exclusion.

[3] = system: rat aortic smooth muscle cells; assay: antagonism of the antiproliferative effect in serum-stimulated smooth muscle cells; format: cell-based
Procedure: as §1
as §2, with “After” for “Rat aortic smooth muscle cells prepared as described in In Vitro Example 1 were plated into 24-well plates at a density of about 30,000 cells/well in 10% fetal calf serum (FCS). After”
To test this, the effect of tolazoline (100 μM) on the concentration/response curve was determined.

I2 imidazoline receptors [4] = assay: saturation/specific binding of 3H-idazoxan to smooth muscle cell membranes (Scatchard analysis); parameters: species or system rat
Procedure: as §3, with “Membrane protein is assayed by Coomassie Blue method (Pierce) using bovine serum albumin as standard.” left out
Primary cultures of rat-aortic smooth muscle cells were prepared by a modification (described in Erlinge, Do, et al, Am. J. Physiol. 265, H1089-1097, 1993) of the method of Meyer-Lehnert and Schrier (Meyer-Lehnert, H., et al, Hypertension 13,350-361, 1989), the disclosure of these cited articles being incorporated herein by reference. […] Cell viability was determined by trypan blue exclusion.

α2 -adrenergic receptors = assay: specific binding of 3H-PAC and 3H-rauwolscine to smooth muscle cell membranes; parameters: species or system rat; conditions: for specific binding of 3H-PAC / 3H-rauwolscine: 5 nM ligand, non-specific binding defined by 100 μM cold ligand; for binding selectivity of radioligand, in words (α2-adrenergic receptors): with epinephrine competition
Procedure: as §4, with “exclusion. Smooth muscle cells were phenotypically defined by immunostaining with anti-smooth muscle actin (Sigma). The cultured cells were usually used for only about 10 passages after which they were replaced by freshly prepared cells.” for “exclusion.”
Membranes were prepared from the cultured cells as described in Regunathan et al, Biochem. Pharmacol. 45, 1667-1675 (1993). Membranes were incubated with 5 nM of ^3 H-idazoxan, ^3 H-PAC or ^3 H-rauwolscine with non-specific binding defined by 100 μM cold ligand as described above.

Compound: Cc1ccc(N(CC2=NCCN2)c2cccc(O)c2)cc1 [Phentolamine]
- 3H-thymidine incorporated (IC50), N symbol [1]: N
- Ki (I2 imidazoline receptors [2]): 10.5 ± 1.4 µM

Compound: N=C(N)NC(=O)c1nc(Cl)c(N)nc1N [Amiloride]
- inhibition of 3H-idazoxan binding, in words (I2 imidazoline receptors [2]): low
- Ki (I2 imidazoline receptors [2]): 75 ± 9.6 µM

Compound: C1COC(NC(C2CC2)C2CC2)=N1 [Rilmenidine]
- inhibition of vascular smooth muscle cell proliferation, in words [1]: had no effect
- 3H-thymidine incorporated (IC50), N symbol [1]: N
- inhibition of 3H-idazoxan binding, in words (I2 imidazoline receptors [2]): low
- Ki (I2 imidazoline receptors [2]): 85 ± 9 µM

Compound: c1ccc(CC2=NCCN2)cc1 [Tolazoline]
- inhibition of vascular smooth muscle cell proliferation, in words [1]: without any effect; also recorded: failed to inhibit cellular proliferation
- 3H-thymidine incorporated (IC50), N symbol [1]: N
- effect on the concentration/response curve for idazoxan ([3]; tolazoline 100 μM): markedly shifted the concentration/response curve for idazoxan to the right
- inhibition of 3H-idazoxan binding, in words (I2 imidazoline receptors [2]): binding with high affinity
- Ki (I2 imidazoline receptors [2]): 0.256 ± 0.023 µM

Compound: c1ccc2c(CC3=NCCN3)cccc2c1 [Naphazoline, 2-(1-naphthylmethyl) imidazoline]
- IC50 [1]: 52.3 ± 5.6 µM

Compound: COC(=O)[C@H]1[C@H]2C[C@H]3c4[nH]c5ccccc5c4CCN3C[C@H]2CC[C@@H]1O [Rauwolscine]
- inhibition of vascular smooth muscle cell proliferation, in words [1]: had no effect
- 3H-thymidine incorporated (IC50), N symbol [1]: N
- effect of rauwolscine on the anti-proliferative response [3]: blocked
- inhibition of 3H-idazoxan binding, in words (I2 imidazoline receptors [2]): without effect
- Ki (I2 imidazoline receptors [2]): > 100 µM

Compound: c1ccc(C2CC2)c(OCC2=NCCN2)c1 [Cirazoline, cyclopropyl phenoxy imidazoline]
- IC50 [1]: 286 ± 19 µM

Compound: N=C(N)N/N=C/c1c(Cl)cccc1Cl [Guanabenz]
- inhibition of 3H-idazoxan binding, in words (I2 imidazoline receptors [2]): low
- Ki (I2 imidazoline receptors [2]): 51 ± 6.5 µM

Compound: c1ccc2c(c1)OCC(C1=NCCN1)O2 (stereo not drawn) [^3 H-idazoxan]
- specific binding of 3H-idazoxan (I2 imidazoline receptors [4]; 5 nM ligand, non-specific binding defined by 100 μM cold ligand): greater than 70%
- Kd (I2 imidazoline receptors [4]; Scatchard analysis, single-site fit, in presence of 10 μM epinephrine): 8.9 ± 1.2 nM
- binding selectivity of radioligand, in words (non-adrenergic sites) (I2 imidazoline receptors [4]; with epinephrine competition): binds almost exclusively to non-adrenergic sites

Compound: COC(=O)C1C(O)CCC2CN3CCc4c([nH]c5ccccc45)C3CC21 (stereo not drawn) [^3 H-rauwolscine]
- specific binding of 3H-PAC / 3H-rauwolscine (α2 -adrenergic receptors): greater than 70%
- binding selectivity of radioligand, in words (α2-adrenergic receptors) (α2 -adrenergic receptors): primarily bind to α2 -adrenergic receptors

Compound: Clc1cccc(Cl)c1N=C1NCCN1 [Clonidine]
- inhibition of vascular smooth muscle cell proliferation, in words [1]: had no effect
- 3H-thymidine incorporated (IC50), N symbol [1]: N
- Ki (I2 imidazoline receptors [2]): 2.5 ± 0.65 µM

Compound: Nc1cc(Cl)c(NC2=NCCN2)c(Cl)c1 [^3 H-PAC]
- specific binding of 3H-PAC / 3H-rauwolscine (α2 -adrenergic receptors): greater than 70%
- binding selectivity of radioligand, in words (α2-adrenergic receptors) (α2 -adrenergic receptors): primarily bind to α2 -adrenergic receptors

Compound: COc1nc(C)nc(Cl)c1N=C1NCCN1 [Moxonidine]
- inhibition of vascular smooth muscle cell proliferation, in words [1]: had no effect
- 3H-thymidine incorporated (IC50), N symbol [1]: N
- inhibition of 3H-idazoxan binding, in words (I2 imidazoline receptors [2]): low
- Ki (I2 imidazoline receptors [2]): 55 ± 4 µM

Compound: CNC[C@H](O)c1ccc(O)c(O)c1 [Epinephrine]
- inhibition of specific binding of 3H-PAC (α2 -adrenergic receptors; epinephrine 10 μM): completely inhibited
- inhibition of specific binding of 3H-rauwolscine (α2 -adrenergic receptors; epinephrine 10 μM): completely inhibited
- reduction of 3H-idazoxan binding (I2 imidazoline receptors [2]; even at 100 μM epinephrine, failed to reduce by greater than): ≤ 10%

From US5574059A, “Treating disorders mediated by vascular smooth muscle cell proliferation” (priority 1995, dated 1996)
